Source: paper PMC10949195, “Exponential Combination of a and e/g Intracellular Peptide Libraries Identifies a Selective ATF3 Inhibitor” (ACS Chemical Biology, 2024)

Legend:
[1] = Peptide permeability assay (PAMPA); format: in vitro ADME
Description: Fig S4: CD data for ATF3 interacting with ATF3W-a and ATF3W-eg.
Peptide permeability assay: The PAMPA assay measures permeability across an artificial membrane. This method provides an in vitro model for passive diffusion. Passive diffusion is an important factor in determining transport through the gastrointestinal tract, penetration of the blood brain barrier, as well as transport across cell membranes. Permeability can also be influenced by several other mechanisms including paracellular transport and active uptake or efflux which are not assessed in PAMPA. Therefore, PAMPA provides a simplistic approach to permeability by only measuring a single mechanism. […]
Peptide permeability assay: To evaluate the peptide permeability, the BD™ pre-coated PAMPA plate system was employed. […] The peptide concentrations in both plates were determined by UV spectroscopy after the assembly plate system were incubated at room temperature for 5 hours, and the peptide permeability and mass retention were calculated by using the PAMPA plate system formula which recommended in the manufacture manual. […]
Serum stability: The quantity of peptide detected by LC-MS is plotted relative to the starting point […]
Fig S5: Shown are serum stability of ATF3W-aeg. The quantity of peptide detected by LC-MS is plotted […]

[2] = CD thermal denaturation of peptide in isolation; format: physicochemical; conditions: CD at 222 nm; 150 μM total peptide; 10 mM potassium phosphate, 100 mM potassium fluoride, pH 7
Description: Following the observed significant increase in global secondary structure content for the ATF3-ATF3W_aeg complex relative to component peptides (Figure 6), we next analyzed the stability of the complex by undertaking thermal denaturation experiments (Figure 7). […] Moreover, consistent with spectral data, the clear increase from the average profile of the component peptides relative to that of the measured is most pronounced in the combined construct (Figure 7, red hash vs black). This provides robust additional evidence for a preferential interaction between ATF3 and ATF3W_aeg that is improved over either the core a or electrostatic e/g constructs.
Shown are thermal stabilities of peptide pairs measured via temperature dependence of the CD signal at 222 nm. The thermal denaturation profiles for (a) ATF3-ATF3W_a, (b) ATF3-ATF3W_eg, and (c) ATF3-ATF3W_aeg show a substantial increase in the transition midpoint (Tm = 59 °C) relative to component peptides (black vs red hash). Experiments were performed in 10 mM potassium phosphate and 100 mM potassium fluoride (pH 7.0). All spectra were recorded at 1 °C increments at a total peptide concentration of 150 μM and fitted to a two-state denaturation model. […]

[3] = Size-exclusion chromatography of peptide alone; format: physicochemical; conditions: Superdex Peptide 10/300 GL, RT; 20 μM total peptide
Experimental: During SEC experiments, monomeric ATF3 (Figure 8, blue line) and ATF3W_aeg (Figure 8, green line) eluted at approximately 20 min. These contrast with the dimeric profile observed for ATF3-ATF3W_aeg (Figure 8, black line), which occurred at approximately 19 min. For all samples, elution profiles were consistent with either a validated monomer or dimer elution pattern.[15]
Figure 8 SEC profiles indicate that ATF3W_aeg binds ATF3. Shown are size exclusion chromatography profiles for interacting peptides. The peak at approx 19 min for the ATF3-ATF3W_aeg mixture (black trace) represents a dimeric sample while ATF3 (blue trace) and ATF3W_aeg (green trace) generate a peak at approx 20 min, indicating the presence of a monomer. These experiments, undertaken at a total peptide concentration of 20 μM, provide additional evidence for selectivity of the ATF3-ATF3W_aeg interaction. Arrows show controls from previous peptides with elution times for a 32 mer Fos monomeric peptide (20 min) and a 37 mer cJun–FosW heterodimer (18.5 min).[15]
Size-exclusion experiments were performed at RT using a Superdex Peptide 10/300 GL column (GE Healthcare Life Sciences) as described previously.[23]

Ac-ELAALEQKAYALKQENAALEKEVAALEQKIAALK-NH2 (N-terminus and C-terminus assumed) [ATF3W_aeg]
PAMPA mass retention ([1]; BD pre-coated PAMPA plate system, 200uM peptide in PBS, room temperature, 5 hours, UV spectroscopy): 5.8%
PAMPA permeability category ([1]; category by Log(Permeability) larger than -6, industry standard in BD PAMPA manual): high permeability
self-association in isolation (thermal denaturation profile) [2]: inability of ATF3W_aeg to form a stable homodimer in isolation
SEC elution time, peptide alone [3]: approximately 20 min
oligomeric state in solution by SEC, peptide alone [3]: exclusively as a monomer
